Data taken from patent US6051570A, “Benzimidazole derivatives as antiulcer agents, process for their preparation and pharmaceutical compositions containing them” (Dr. Reddy's Research Foundation, priority 1998, dated 2000).
Where a name gives a salt, the structure may show the parent alone.

How the values were obtained:
gastric acid secretion = experiment: Gastric acid antisecretory activity in pylorus ligated rat model (intraduodenal); format: in vivo, Male wistar rats; conditions: for ED50: pylorus ligated rat, read-out: ED50 value (in vivo experiment, gastric acid secretion); for ED50 / inhibition in vivo at 10 mg/kg: intraduodenal, 2 h; for inhibition in vivo at 10 mg/kg: Rattus norvegicus
Description: B) Gastric acid antisecretory activity The inhibitory effect on gastric acid secretion is determined in pylorus ligated rat model according to Shay et al. ([…]., Gruenstein, H. & Siplet, H. Gastroenterology 1945, 5:43). Male wistar rats weighing about 150-200 g fasted for 24 h with ad libitum are used. Under ether anaesthesia the laparotomy is performed and pylorus portion of the stomach is isolated and ligated with surgical suture. The test drug/vehicle is administered intraduodenally and the abdominal incision is closed using Michael clips. After 2 h, the animals were sacrificed with excess ether anaesthesia and stomach is removed. The gastric contents are collected and centrifuged at 10,000 rpm for 10 min. The volume of the gastric juice is measured and acid concentration is estimated by titrating an aliquot of the gastric juice against 0.004N NaOH using phenolphthalein as the indicator. Total acid output is expressed as milliequivalents/L/kg/h and volume of gastric juice as mL/kg/h. The ED50 value for the test compound is calculated according to graphical method. Omeprazole is used as a standard compound.

H^+ /K^+ - ATPase = biological target: T1, H^+ /K^+ - ATPase (Oryctolagus cuniculus, UniProt P27112); experiment: H+/K+-ATPase inhibition (rabbit gastric mucosa enzyme, Pi liberated by ATP hydrolysis); format: biochemical; conditions: pH 6.5, 37° C., 15 min
T1 construct: Rabbit gastric mucosa containing H^+ /K^+ - ATPase activity is isolated; from tissue; host or cells: rabbit gastric fundic mucosa, membrane fraction (sucrose-step ultracentrifugation pellet)
Excerpt: A) H^+ /K^+ - ATPase inhibition
The most efficient method for reducing acid-related gastrointestinal disorder is through the inhibition of proton pump on the gastric parietal cell. The proton pump (H^+ /K^+ ATPase) is a membrane bound enzyme that exchanges protons for K^+ ions across the apical surface. Associated with this is a K^+ /Cl^- cotransporter which recycles the K^+ together with the Cl^- across the apical surface where HCl is formed by the Cl^- ions together with the secreted H^+. This enzyme has an ATP hydrolyzing activity which requires intravesicular K^+.
Principle [formula] Pi liberated is estimated, the amount of Pi liberated is proportional to the enzyme activity.
(i) Preparation of H^+ /K^+ - ATPase […]
Assay is carried out according to the protocol described by Beil, R (Beil, R. Br. J. Pharmacol, 1984, 82:651). […] After incubation for 15 min. at 37° C., the reaction is stopped by adding equal volume of phosphate reagent and the Pi produced by the hydrolysis of ATP is determined by the method of Lin et al. (Lin T -I. & Morales, M. F. Anal. Biochem. 1977, 77:10). The H^+ /K^+ - ATPase activity is calculated by subtracting the basal activity (in absence of KCl) from the rate of hydrolysis of ATP in the presence of K^+. The percent inhibition were determined for the test compounds.

T1 sequence (P27112 2-1035 limits assumed): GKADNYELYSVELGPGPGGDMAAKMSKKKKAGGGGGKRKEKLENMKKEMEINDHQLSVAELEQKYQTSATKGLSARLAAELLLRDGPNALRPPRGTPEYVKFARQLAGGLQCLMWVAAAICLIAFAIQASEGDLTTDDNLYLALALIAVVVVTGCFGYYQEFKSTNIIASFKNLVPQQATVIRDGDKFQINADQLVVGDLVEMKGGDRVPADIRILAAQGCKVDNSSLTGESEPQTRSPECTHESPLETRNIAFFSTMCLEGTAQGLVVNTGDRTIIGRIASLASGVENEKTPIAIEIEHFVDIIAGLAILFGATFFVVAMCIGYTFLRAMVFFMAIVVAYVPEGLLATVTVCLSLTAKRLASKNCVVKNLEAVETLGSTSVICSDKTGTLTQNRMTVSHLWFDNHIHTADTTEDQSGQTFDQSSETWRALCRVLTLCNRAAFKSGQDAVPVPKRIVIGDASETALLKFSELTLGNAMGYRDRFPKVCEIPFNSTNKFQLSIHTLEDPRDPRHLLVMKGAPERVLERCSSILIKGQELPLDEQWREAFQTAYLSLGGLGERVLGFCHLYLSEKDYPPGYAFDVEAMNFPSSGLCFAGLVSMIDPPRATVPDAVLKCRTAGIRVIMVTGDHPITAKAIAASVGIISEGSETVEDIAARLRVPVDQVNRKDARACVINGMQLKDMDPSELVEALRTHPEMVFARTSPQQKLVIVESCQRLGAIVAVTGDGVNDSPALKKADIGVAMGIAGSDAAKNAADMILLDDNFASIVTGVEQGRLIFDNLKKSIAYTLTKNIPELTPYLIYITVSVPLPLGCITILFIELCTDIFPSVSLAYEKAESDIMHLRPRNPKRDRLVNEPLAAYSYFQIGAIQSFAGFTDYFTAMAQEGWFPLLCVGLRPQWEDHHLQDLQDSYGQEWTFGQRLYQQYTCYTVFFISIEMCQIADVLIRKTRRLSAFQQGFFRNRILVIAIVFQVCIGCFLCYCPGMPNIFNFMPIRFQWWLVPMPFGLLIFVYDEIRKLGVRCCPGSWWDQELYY
T1 sequence (P18597 whole entry partner): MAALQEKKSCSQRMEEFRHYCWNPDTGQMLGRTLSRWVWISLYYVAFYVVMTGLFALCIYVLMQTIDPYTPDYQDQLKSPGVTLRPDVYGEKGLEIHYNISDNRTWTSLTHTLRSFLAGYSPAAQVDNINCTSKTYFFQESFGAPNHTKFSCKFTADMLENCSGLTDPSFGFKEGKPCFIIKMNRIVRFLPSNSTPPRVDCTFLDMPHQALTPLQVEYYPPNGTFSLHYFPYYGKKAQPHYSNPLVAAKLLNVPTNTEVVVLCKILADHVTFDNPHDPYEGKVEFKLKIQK

Structure (SMILES)	inhibition in vivo at 10 mg/kg (gastric acid secretion) [%]	also measured
COc1ccnc(C[S+]([O-])c2nc3cc(N4CCOCC4)c(F)cc3[nH]2)c1C (stereo not shown) [Example 57, 2-[[(4-Methoxy-3-methyl)pyridin-2-yl]methylsulfinyl]-6-fluoro-5-(morpholin-1-yl)-1H-benzimidazole]	–	ED50 (gastric acid secretion): 3 ± 0.2 mg/kg; IC50 (H^+ /K^+ - ATPase): 2.6 µM
COc1ccnc(C[S+]([O-])c2nc3cc(N4CCCCC4)c(F)cc3[nH]2)c1C (stereo not shown) [Example 67, 2-[[(4-Methoxy-3-methyl)pyridin-2-yl]methylsulfinyl]-6-fluoro-5-(piperidin-1-yl)-1H-benzimidazole]	100	–
COc1ccnc(C[S+]([O-])c2nc3cc(N4CCCCC4)c(F)cc3[nH]2)c1C (stereo not shown) [Example 68, 2-[[(4-Methoxy-3-methyl)pyridin-2-yl]metlhylsulfinyl]-6-fluoro-5-(piperidin-1-yl)-1H-benzimidazole, sodium salt]	–	% Inhibition at 10 mg/kg (gastric acid secretion): 100%
Cc1c(N2CCCCC2)ccnc1C[S+]([O-])c1nc2cc(N3CCCCC3)c(F)cc2[nH]1 (stereo not shown) [Example 69]	97	–
COc1ccnc(C[S+]([O-])c2nc3cc(N4CCN(C(=O)OC(C)(C)C)CC4)c(F)cc3[nH]2)c1C (stereo not shown) [Example 73, 2-[[(4-Methoxy-3methyl)pyridin-2-yl]methylsulfinyl]-6-fluoro-5-(4-t-butyloxycarbonylpiperazin-1-yl)-1H-benzimidazole]	93	–
COc1ccnc(C[S+]([O-])c2nc3cc(N4CCCCCC4)c(F)cc3[nH]2)c1C (stereo not shown) [Example 80, 2-[[(4-Methoxy-3-methyl)pyridin-2-yl]methylsulfinyl]-6-fluoro-5-(hexamethyleneimin-1-yl)-1H-benzimidazole]	100	–
COc1ccnc(C[S+]([O-])c2nc3cc(N4CCCCCC4)c(F)cc3[nH]2)c1C (stereo not shown) [Example 81, 2-[[(4-Methoxy-3-methyl)pyridin-2-yl]methylsulfinyl]-6-fluoro-5-(hexamethyleneimin-1-yl)-1H-benzimidazole, sodium salt]	–	% Inhibition at 10 mg/kg (gastric acid secretion): 100%
Cc1c(N2CCOCC2)ccnc1C[S+]([O-])c1nc2cc(N3CCCCCC3)c(F)cc2[nH]1 (stereo not shown) [Example 82, 2-[[(4-(Morpholin-1-yl)-3-methyl)pyridin-2-yl]methylsulfinyl]-6-fluoro-5-(hexamethyleneimin-1-yl)-1H-benzimidazole]	100	–
COc1ccnc(C[S+]([O-])c2nc3cc(N4CCCC4)c(F)cc3[nH]2)c1C (stereo not shown) [Example 84, 2-[[(4-Methoxy-3-methyl)pyridin-2-yl]methylsulfinyl]-6-fluoro-5-(pyrrolidin-1-yl)-1H-benzimidazole]	93	–
COc1ccnc(C[S+]([O-])c2nc3cc(N4CCOCC4)ccc3[nH]2)c1C (stereo not shown) [Example 87, 2-[[(4-Methoxy-3-methyl)pyridin-2-yl]methylsulfinyl]-5-(morpholin-1-yl)-1H-benzimidazole]	90	–
COc1ccnc(C[S+]([O-])c2nc3cc(N4CCN(C(=O)OC(C)(C)C)CC4)ccc3[nH]2)c1C (stereo not shown) [Example 90, 2-[[(4-Methoxy-3-methyl)pyridin-2-yl]methylsulfinyl]-5-(4-t-butyloxycarbonylpiperazin-1-yl)-1H-benzimidazole]	100	–
COc1ccnc(C[S+]([O-])c2nc3cc(N4CCCCCC4)ccc3[nH]2)c1C (stereo not shown) [Example 91, 2-[[-(4-Methoxy-3-methyl)pyridin-2-yl]methylsulfinyl]-5-(hexamethyleneimin-1-yl)-1H-benzimidazole]	97	–
COc1ccc2[nH]c([S+]([O-])Cc3ncc(C)c(OC)c3C)nc2c1 (stereo not shown) [Omeprazole, 2-[[(4-methoxy-3,5-dimethyl)pyridin-2-yl]methylsulfinyl]-5-methoxy-1H-benzimidazole, reference compound]	75	ED50 (gastric acid secretion): 4.96 ± 0.5 mg/kg; IC50 (H^+ /K^+ - ATPase): 4.35 ± 0.56 µM
